Reference: ChEMBL document CHEMBL4229439, “Design, synthesis and antimycobacterial activity of 3,5-dinitrobenzamide derivatives containing fused ring moieties” (2018)
Values after ≈ are worked out from the molar mass of the structure shown. Active and inactive are the calls of the source. No cut-off for these calls is given here.

Key:
[1] = test system: Mycobacterium tuberculosis; test: Antimycobacterial activity against isoniazid/rifampicin-resistant Mycobacterium tuberculosis isolate 16995 after 7 days by Alamar blue assay; type: functional; conditions: isolate 16995, 168 h
[2] = test system: Mycobacterium tuberculosis; test: Antimycobacterial activity against isoniazid/rifampicin-resistant Mycobacterium tuberculosis isolate 16833 after 7 days by Alamar blue assay; type: functional; conditions: isolate 16833, 168 h
[3] = test system: Mycobacterium tuberculosis; test: Antimycobacterial activity against isoniazid/rifampicin-resistant Mycobacterium tuberculosis isolate 16833 up to 10 ug/ml after 7 days by Alamar blue assay; type: functional, organism-based
[4] = test system: Mycobacterium tuberculosis; test: Antimycobacterial activity against isoniazid/rifampicin-resistant Mycobacterium tuberculosis isolate 16995 up to 10 ug/ml after 7 days by Alamar blue assay; type: functional, organism-based

Row | SMILES | MIC [1] | MIC [2] | Activity [3] | Activity [4]
1 | O=C(NCc1ccc2c(c1)CN(Cc1ccc(C(F)(F)F)cc1)C2)c1cc([N+](=O)[O-])cc([N+](=O)[O-])c1 | 0.308 µg/mL (≈ 0.615 µM) | 0.278 µg/mL (≈ 0.556 µM) | – | –
2 | NNC(=O)c1ccncc1 [ISONIAZID] | > 40 µg/mL | > 40 µg/mL | – | –
3 | O=C(NCc1ccc2c(c1)CNC2)c1cc([N+](=O)[O-])cc([N+](=O)[O-])c1 | > 10 µg/mL | > 10 µg/mL | inactive | inactive
4 | COc1ccc(CN2Cc3ccc(CNC(=O)c4cc([N+](=O)[O-])cc([N+](=O)[O-])c4)cc3C2)cc1 | 0.606 µg/mL (≈ 1.31 µM) | 0.286 µg/mL (≈ 0.618 µM) | – | –
5 | O=C(NCc1ccc2c(c1)CCN(Cc1ccc(Cl)cc1)C2)c1cc([N+](=O)[O-])cc([N+](=O)[O-])c1 | 0.077 µg/mL (≈ 0.16 µM) | 0.143 µg/mL (≈ 0.297 µM) | – | –
6 | O=C(NCc1ccc2c(c1)CCN(Cc1cccc(F)c1)C2)c1cc([N+](=O)[O-])cc([N+](=O)[O-])c1 | 0.076 µg/mL (≈ 0.164 µM) | 0.074 µg/mL (≈ 0.159 µM) | – | –
7 | O=c1nc(N2CCN(CC3CCCCC3)CC2)sc2c([N+](=O)[O-])cc(C(F)(F)F)cc12 [MACOZINONE] | < 0.016 µg/mL | < 0.016 µg/mL | – | –
8 | O=C(NCc1ccc2c(c1)CN(c1ccc(F)cc1)C2)c1cc([N+](=O)[O-])cc([N+](=O)[O-])c1 | 0.147 µg/mL (≈ 0.337 µM) | 0.066 µg/mL (≈ 0.151 µM) | – | –
9 | O=C(NCc1ccc2c(c1)CCN(c1ccc(C(F)(F)F)cc1)C2)c1cc([N+](=O)[O-])cc([N+](=O)[O-])c1 | 0.302 µg/mL (≈ 0.603 µM) | 0.152 µg/mL (≈ 0.304 µM) | – | –
10 | O=C(NCc1ccc2c(c1)CCN(c1ccc(F)cc1)C2)c1cc([N+](=O)[O-])cc([N+](=O)[O-])c1 | 0.078 µg/mL (≈ 0.173 µM) | 0.074 µg/mL (≈ 0.164 µM) | – | –
11 | O=C(NCc1ccc2c(c1)CN(Cc1ccc(F)cc1)C2)c1cc([N+](=O)[O-])cc([N+](=O)[O-])c1 | 0.115 µg/mL (≈ 0.255 µM) | 0.073 µg/mL (≈ 0.162 µM) | – | –
12 | CO[C@H]1/C=C/O[C@@]2(C)Oc3c(C)c(O)c4c(O)c(c(/C=N/N5CCN(C)CC5)c(O)c4c3C2=O)NC(=O)/C(C)=C\C=C\[C@H](C)[C@H](O)[C@@H](C)[C@@H](O)[C@@H](C)[C@H](OC(C)=O)[C@@H]1C [RIFAMPIN] | > 40 µg/mL | > 40 µg/mL | – | –
13 | O=C(NCc1ccc2c(c1)CN(Cc1ccc(OC(F)(F)F)cc1)C2)c1cc([N+](=O)[O-])cc([N+](=O)[O-])c1 | 0.61 µg/mL (≈ 1.18 µM) | 0.565 µg/mL (≈ 1.09 µM) | – | –
